Assay results reported in US20180148418A1, “AMIDO-SUBSTITUTED CYCLOHEXANE DERIVATIVES” (Bayer Pharma Aktiengesellschaft, priority 2015, published 2018).

Assays:
[1] = test system: HEK293 cells cotransfected with the FOP control vector; assay: HEK293 FOP assay (control reporter with non-functional TCF elements); format: cell-based; conditions: Homo sapiens, 16 hours
How it was run: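 Compound series from 50 μM down to 15 nM, prediluted in DMSO then 50-fold into CAFTY buffer (pH 7.4, 2 mM Ca2+, 0.01% BSA), tested alongside TOP cells on a Geneticin-selected HEK293 FOP line whose TCF elements are replaced by a random sequence; recombinant human Wnt-3a applied at 2500-5 ng/ml.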

[2] = target: T1, TNKS1 (Homo sapiens, UniProt O95271); assay: TNKS1 Assay B (auto-parsylation, [3H]-NAD+ SPA); format: biochemical; conditions: 6 nM TNKS1, auto-parsylation, over night at room temperature
T1 construct: purchased BPS Bioscience, San Diego, USA 80579 (TNKS1 Histone Ribosylation Assay Kit)
T1 sequence (O95271 1-1327): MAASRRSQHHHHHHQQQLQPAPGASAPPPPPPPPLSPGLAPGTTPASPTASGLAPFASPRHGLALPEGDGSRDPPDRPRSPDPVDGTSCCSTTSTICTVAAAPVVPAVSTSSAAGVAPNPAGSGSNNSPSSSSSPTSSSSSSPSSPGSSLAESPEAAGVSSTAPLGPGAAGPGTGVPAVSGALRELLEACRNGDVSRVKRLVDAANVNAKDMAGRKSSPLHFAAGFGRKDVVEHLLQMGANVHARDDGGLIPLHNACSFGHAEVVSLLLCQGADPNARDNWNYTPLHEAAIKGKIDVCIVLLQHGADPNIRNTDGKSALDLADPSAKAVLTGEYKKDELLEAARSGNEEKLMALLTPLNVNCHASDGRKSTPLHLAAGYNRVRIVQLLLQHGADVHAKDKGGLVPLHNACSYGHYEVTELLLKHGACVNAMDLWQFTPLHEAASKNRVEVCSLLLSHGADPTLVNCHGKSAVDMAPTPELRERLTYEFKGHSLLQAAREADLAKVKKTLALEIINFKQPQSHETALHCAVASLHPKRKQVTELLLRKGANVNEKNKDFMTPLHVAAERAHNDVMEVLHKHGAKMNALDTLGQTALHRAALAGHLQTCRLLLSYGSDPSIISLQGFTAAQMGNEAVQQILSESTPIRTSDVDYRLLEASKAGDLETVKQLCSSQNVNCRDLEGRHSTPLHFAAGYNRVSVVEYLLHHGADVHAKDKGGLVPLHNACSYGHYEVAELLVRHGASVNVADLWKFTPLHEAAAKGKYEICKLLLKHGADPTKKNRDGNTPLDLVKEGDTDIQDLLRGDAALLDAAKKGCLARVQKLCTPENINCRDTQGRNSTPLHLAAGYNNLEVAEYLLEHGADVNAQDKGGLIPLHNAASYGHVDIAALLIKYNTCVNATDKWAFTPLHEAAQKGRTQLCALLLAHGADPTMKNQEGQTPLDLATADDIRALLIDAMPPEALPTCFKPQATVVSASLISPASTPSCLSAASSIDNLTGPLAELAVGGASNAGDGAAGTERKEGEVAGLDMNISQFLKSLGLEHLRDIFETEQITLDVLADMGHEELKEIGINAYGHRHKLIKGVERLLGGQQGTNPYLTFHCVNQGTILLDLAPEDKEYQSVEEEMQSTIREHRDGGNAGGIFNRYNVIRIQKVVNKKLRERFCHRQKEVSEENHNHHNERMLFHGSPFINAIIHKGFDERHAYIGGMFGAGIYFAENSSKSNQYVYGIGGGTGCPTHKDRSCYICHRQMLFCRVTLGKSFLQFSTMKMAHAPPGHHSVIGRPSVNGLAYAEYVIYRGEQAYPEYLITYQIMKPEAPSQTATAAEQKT

| IC50 [2] | Compound | IC50 [1] |
| --- | --- | --- |
| 94 nM | CC(C)OCCNC(=O)c1nc[nH]c1C(=O)N[C@H]1CC[C@H](C(=O)Nc2ccc(F)cc2Cl)CC1 [Example 76, N^5-{trans-4-[(2-chloro-4-fluorophenyl)carbamoyl]cyclohexyl}-N^4-(2-isopropoxyethyl)-1H-imidazole-4,5-dicarboxamide] | ≥ 50000 nM |
| > 10000 nM | CNC(=O)c1ocnc1C(=O)N[C@H]1CC[C@H](C(=O)Nc2ccc(F)cc2Cl)CC1 [Example 30] | 40000 nM |
| 740 nM | Cc1c(C(C)O)cnc2c(C(=O)N[C@H]3CC[C@H](C(=O)Nc4ccc(F)cc4Cl)CC3)cnn12 (stereo partly drawn) [Example 58, N-{trans-4-[(2-chloro-4-fluorophenyl)carbamoyl]cyclohexyl}-6-(1-hydroxyethyl)-7-methylpyrazolo[1,5-a]pyrimidine-3-carboxamide] | ≥ 50000 nM |
| 1200 nM | O=C(NCC1CCCO1)c1nc[nH]c1C(=O)N[C@H]1CC[C@H](C(=O)Nc2cc(N3CCOCC3)ccc2Cl)CC1 (stereo partly drawn) [Example 89, N^5-(trans-4-{[2-chloro-5-(morpholin-4-yl)phenyl]carbamoyl}cyclohexyl)-N^4-(tetrahydrofuran-2-ylmethyl)-1H-imidazole-4,5-dicarboxamide] | 24000 nM |
| 310 nM | COC[C@H](C)NC(=O)c1nc[nH]c1C(=O)N[C@H]1CC[C@H](C(=O)Nc2c(F)cc(F)cc2Cl)CC1 [Example 66, N^5-{trans-4-[(2-chloro-4,6-difluorophenyl)carbamoyl]cyclohexyl}-N^4-[(2S)-1-methoxypropan-2-yl]-1H-imidazole-4,5-dicarboxamide] | ≥ 50000 nM |
| 81 nM | O=C(N[C@H]1CC[C@H](C(=O)Nc2ccc(F)cc2Cl)CC1)c1cnn2cccnc12 [Example 43, N-{trans-4-[(2-chloro-4-fluorophenyl)carbamoyl]cyclohexyl}pyrazolo[1,5-a]pyrimidine-3-carboxamide] | ≥ 50000 nM |
| 94 nM | Cc1cc(N2CCC[C@]3(CC[C@@H](NC(=O)c4cnn5cccnc45)CC3)C2=O)c(Cl)cc1F [Example 300, N-[(trans)-2-(2-chloro-4-fluoro-5-methylphenyl)-1-oxo-2-azaspiro[5.5]undec-9-yl]pyrazolo[1,5-a]pyrimidine-3-carboxamide] | ≥ 500 nM |
| 48 nM | Cc1cc(C)n2ncc(C(=O)N[C@H]3CC[C@H](C(=O)Nc4ccc(F)cc4Cl)CC3)c2n1 [Example 44, N-{trans-4-[(2-chloro-4-fluorophenyl)carbamoyl]cyclohexyl}-5,7-dimethylpyrazolo[1,5-a]pyrimidine-3-carboxamide] | ≥ 50000 nM |
| 73 nM | CNC(=O)c1nc[nH]c1C(=O)N[C@H]1CC[C@H](C(=O)Nc2ccc(F)cc2Cl)CC1 [Example 1, N^5-{trans-4-[(2-chloro-4-fluorophenyl)carbamoyl]cyclohexyl}-N^4-methyl-1H-imidazole-4,5-dicarboxamide] | ≥ 50000 nM |
| 21 nM | COC1CN(C(=O)c2nc[nH]c2C(=O)N[C@H]2CC[C@H](C(=O)Nc3ccc(F)cc3Cl)CC2)C1 [Example 24, 4 N-{trans-4-[(2-chloro-4-fluorophenyl)carbamoyl]cyclohexyl}-4-[(3-methoxyazetidin-1-yl)carbonyl]-1H-imidazole-5-carboxamide] | ≥ 50000 nM |
| 120 nM | Cc1cc(C)n2ncc(C(=O)NC3CCC(C(=O)Nc4ccc(F)cc4Cl)CC3C)c2n1 (centres unmarked) [Example 42, N-{4-[(2-chloro-4-fluorophenyl)carbamoyl]-2-methylcyclohexyl}-5,7-dimethylpyrazolo[1,5-a]pyrimidine-3-carboxamide] | ≥ 50000 nM |
| 84 nM | CC(C)(O)CNC(=O)c1nc[nH]c1C(=O)N[C@H]1CC[C@H](C(=O)Nc2ccc(F)cc2Cl)CC1 [Example 75, N^5-{trans-4-[(2-chloro-4-fluorophenyl)carbamoyl]cyclohexyl}-N^4-(2-hydroxy-2-methylpropyl)-1H-imidazole-4,5-dicarboxamide] | ≥ 50000 nM |
| 3100 nM | COC(C)(C)CNC(=O)c1nc[nH]c1C(=O)N[C@H]1CC[C@H](C(=O)Nc2cc(N3CCOCC3)ccc2Cl)CC1 [Example 90, N^5-(trans-4-{[2-chloro-5-(morpholin-4-yl)phenyl]carbamoyl}cyclohexyl)-N^4-(2-methoxy-2-methylpropyl)-1H-imidazole-4,5-dicarboxamide] | 33000 nM |
| 630 nM | COCC(C)NC(=O)c1nc[nH]c1C(=O)N[C@H]1CC[C@@]2(CCN(c3cccc(Cl)c3)C2=O)CC1 (stereo partly drawn) [Example 285, N^5-[(trans)-2-(3-chlorophenyl)-1-oxo-2-azaspiro[4.5]dec-8-yl]-N^4-(1-methoxypropan-2-yl)-1H-imidazole-4,5-dicarboxamide] | 16000 nM |
| 610 nM | COC[C@H](C)NC(=O)c1nc[nH]c1C(=O)N[C@H]1CC[C@H](C(=O)Nc2ccc(F)cc2Cl)CC1 [Example 83, N^5-{trans-4-[(2-chloro-4-fluorophenyl)carbamoyl]cyclohexyl}-N^4-[(2S)-1-methoxypropan-2-yl]-1H-imidazole-4,5-dicarboxamide] | 29000 nM |
| 7.1 nM | Cc1cc(C)n2ncc(C(=O)N[C@H]3CC[C@@]4(CCN(c5cc(F)c(F)cc5Cl)C4=O)CC3)c2n1 [Example 299, N-[(trans)-2-(2-chloro-4,5-difluorophenyl)-1-oxo-2-azaspiro[4.5]dec-8-yl]-5,7-dimethylpyrazolo[1,5-a]pyrimidine-3-carboxamide] | ≥ 50000 nM |
| 30 nM | CNC(=O)c1nc[nH]c1C(=O)N[C@H]1CC[C@H](C(=O)Nc2c(Br)cc(F)c(F)c2F)CC1 [Example 27, N^5-{trans-4-[(6-bromo-2,3,4-trifluorophenyl)carbamoyl]cyclohexyl}-N^4-methyl-1H-imidazole-4,5-dicarboxamide] | ≥ 50000 nM |
| 110 nM | COc1ccc2ncc(C(=O)N[C@H]3CC[C@H](C(=O)Nc4ccc(F)cc4Cl)CC3)n2n1 [Example 50, N-{trans-4-[(2-chloro-4-fluorophenyl)carbamoyl]cyclohexyl}-6-methoxyimidazo[1,2-b]pyridazine-3-carboxamide] | ≥ 50000 nM |
| 30 nM | O=C(NCC1CCCO1)c1nc[nH]c1C(=O)N[C@H]1CC[C@H](C(=O)Nc2cc(F)c(F)cc2Cl)CC1 (stereo partly drawn) [Example 86, N^5-{trans-4-[(2-chloro-4,5-difluorophenyl)carbamoyl]cyclohexyl}-N^4-(tetrahydrofuran-2-ylmethyl)-1H-imidazole-4,5-dicarboxamide] | 14000 nM |
| > 10000 nM | CNC(=O)c1[nH]cnc1C(=O)NC1CCC(C(=O)Nc2ccc(F)cc2Cl)CC1C (single isomer, unassigned) [Example 41, N^4-{4-[(2-chloro-4-fluorophenyl)carbamoyl]-2-methylcyclohexyl}-N^5-methyl-1H-imidazole-4,5-dicarboxamide] | ≥ 50000 nM |
| 59 nM | Cc1cc(NC(=O)[C@H]2CC[C@H](NC(=O)c3[nH]cnc3C(=O)NCC3CCCO3)CC2)c(Cl)cc1F (stereo partly drawn) [Example 64, N^5-{trans-4-[(2-chloro-4-fluoro-5-methylphenyl)carbamoyl]cyclohexyl}-N^4-(tetrahydrofuran-2-ylmethyl)-1H-imidazole-4,5-dicarboxamide] | 27000 nM |
| 6.1 nM | O=C(N[C@H]1CC[C@@]2(CCN(c3cc(F)c(F)cc3Cl)C2=O)CC1)c1cnc2cccnn12 [Example 298, N-[(trans)-2-(2-chloro-4,5-difluorophenyl)-1-oxo-2-azaspiro[4.5]dec-8-yl]imidazo[1,2-b]pyridazine-3-carboxamide] | ≥ 50000 nM |
